# Assay results reported in ChEMBL document CHEMBL5465560, “Selectivity Literature for EUbOPEN Chemogenomic Library” (2024).
# How the values were obtained:
# [1] = molecular target: STE20/SPS1-related proline-alanine-rich protein kinase (Homo sapiens) (UniProt Q9UEW8); test: Selectivity interaction (LanthaScreen Eu Kinase Binding Assay) EUB0001632a STK39; settings: at 10 µM
# [2] = molecular target: Tyrosine-protein kinase Lyn (Homo sapiens, UniProt P07948); test: Selectivity interaction (ActivX KiNativ screen (kinase selectivity in THP-1 cell lysates)) EUB0000639a LYN; type: subcellular; settings: lysate, at 1 µM
# Tyrosine-protein kinase Lyn, sequence (P07948 2-512 limits assumed): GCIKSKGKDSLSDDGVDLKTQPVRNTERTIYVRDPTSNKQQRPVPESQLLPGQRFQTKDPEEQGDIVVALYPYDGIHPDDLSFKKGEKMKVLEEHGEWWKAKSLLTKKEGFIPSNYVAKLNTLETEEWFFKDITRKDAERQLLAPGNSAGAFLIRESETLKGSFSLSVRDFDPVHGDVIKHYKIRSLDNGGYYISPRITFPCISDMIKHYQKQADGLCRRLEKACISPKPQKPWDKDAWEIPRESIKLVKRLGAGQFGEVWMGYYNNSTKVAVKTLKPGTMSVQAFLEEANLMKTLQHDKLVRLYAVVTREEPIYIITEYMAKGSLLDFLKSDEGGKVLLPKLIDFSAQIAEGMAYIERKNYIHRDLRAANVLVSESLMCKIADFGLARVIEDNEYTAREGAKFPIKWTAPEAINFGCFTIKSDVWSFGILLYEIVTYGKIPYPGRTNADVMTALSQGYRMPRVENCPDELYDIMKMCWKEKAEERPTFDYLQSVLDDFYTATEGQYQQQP
# [3] = molecular target: Tyrosine-protein kinase Fyn (Homo sapiens) (UniProt P06241); test: Selectivity interaction (ActivX KiNativ screen (kinase selectivity in THP-1 cell lysates)) EUB0000639a FYN; type: subcellular; settings: lysate
# Tyrosine-protein kinase Fyn (Homo sapiens), sequence (P06241 2-537 limits assumed): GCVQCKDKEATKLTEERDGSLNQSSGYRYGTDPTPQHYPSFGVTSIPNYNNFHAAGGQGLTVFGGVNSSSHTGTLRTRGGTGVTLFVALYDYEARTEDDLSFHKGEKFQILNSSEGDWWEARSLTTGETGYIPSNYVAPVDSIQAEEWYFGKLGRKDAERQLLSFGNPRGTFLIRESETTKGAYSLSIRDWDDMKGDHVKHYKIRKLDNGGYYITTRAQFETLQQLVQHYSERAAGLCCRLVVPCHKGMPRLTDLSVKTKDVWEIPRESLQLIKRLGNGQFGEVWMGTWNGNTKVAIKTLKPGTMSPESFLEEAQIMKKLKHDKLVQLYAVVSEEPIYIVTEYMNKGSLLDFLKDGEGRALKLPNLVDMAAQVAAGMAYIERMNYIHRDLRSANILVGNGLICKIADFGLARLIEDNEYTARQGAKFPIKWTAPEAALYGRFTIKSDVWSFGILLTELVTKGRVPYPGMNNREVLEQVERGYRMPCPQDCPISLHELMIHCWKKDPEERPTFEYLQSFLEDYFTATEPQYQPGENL
# [4] = molecular target: Vascular endothelial growth factor receptor 1 (Homo sapiens) (UniProt P17948); test: Selectivity interaction (Kinase panel (DSF assay)) EUB0001489b FLT1
# Vascular endothelial growth factor receptor 1 (Homo sapiens), sequence (P17948 whole entry): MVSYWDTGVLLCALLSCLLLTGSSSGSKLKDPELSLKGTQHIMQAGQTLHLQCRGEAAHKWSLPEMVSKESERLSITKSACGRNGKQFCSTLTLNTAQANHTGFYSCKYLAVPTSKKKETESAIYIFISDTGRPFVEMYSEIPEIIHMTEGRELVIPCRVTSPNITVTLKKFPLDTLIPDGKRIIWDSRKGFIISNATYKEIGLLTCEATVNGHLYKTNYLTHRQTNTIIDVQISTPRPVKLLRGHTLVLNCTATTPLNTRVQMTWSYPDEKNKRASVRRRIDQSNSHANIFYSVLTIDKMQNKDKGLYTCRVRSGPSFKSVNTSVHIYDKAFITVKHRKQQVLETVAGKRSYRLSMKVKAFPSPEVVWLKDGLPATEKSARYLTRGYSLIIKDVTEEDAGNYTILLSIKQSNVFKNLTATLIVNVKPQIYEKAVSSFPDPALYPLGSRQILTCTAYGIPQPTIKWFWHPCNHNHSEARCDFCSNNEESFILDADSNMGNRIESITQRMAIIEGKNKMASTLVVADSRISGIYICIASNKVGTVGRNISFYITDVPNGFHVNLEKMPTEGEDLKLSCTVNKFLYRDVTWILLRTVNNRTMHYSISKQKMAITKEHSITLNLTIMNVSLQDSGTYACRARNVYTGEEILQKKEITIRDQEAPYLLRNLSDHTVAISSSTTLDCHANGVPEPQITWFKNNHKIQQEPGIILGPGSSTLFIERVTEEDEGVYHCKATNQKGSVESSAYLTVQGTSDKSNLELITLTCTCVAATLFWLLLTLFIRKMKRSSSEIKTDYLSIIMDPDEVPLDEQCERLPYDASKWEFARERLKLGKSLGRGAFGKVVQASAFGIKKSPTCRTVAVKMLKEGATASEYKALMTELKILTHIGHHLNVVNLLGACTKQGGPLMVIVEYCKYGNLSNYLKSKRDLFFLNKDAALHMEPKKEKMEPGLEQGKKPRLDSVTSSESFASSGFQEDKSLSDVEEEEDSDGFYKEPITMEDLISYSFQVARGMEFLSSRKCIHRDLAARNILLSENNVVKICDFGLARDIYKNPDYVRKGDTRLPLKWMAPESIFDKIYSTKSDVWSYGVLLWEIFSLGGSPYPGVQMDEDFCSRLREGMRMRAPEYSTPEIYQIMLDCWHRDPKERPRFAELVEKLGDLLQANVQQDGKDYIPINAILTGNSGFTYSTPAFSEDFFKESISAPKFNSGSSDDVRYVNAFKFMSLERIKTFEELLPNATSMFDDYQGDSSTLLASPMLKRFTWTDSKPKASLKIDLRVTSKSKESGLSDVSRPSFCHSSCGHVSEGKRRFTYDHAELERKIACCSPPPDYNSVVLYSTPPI
# [5] = molecular target: Kappa-type opioid receptor (Homo sapiens, UniProt P41145); test: Selectivity interaction (Panel of non-epigenetic targets (kinases, GPCRs, ion channels, and transporters, Eurofins) ) EUB0000271b OPRK1; settings: at 1 µM
# [6] = molecular target: Insulin-like growth factor 1 receptor (Homo sapiens, UniProt P08069); test: Selectivity interaction (KinomeScan (DiscoverX)) EUB0000695a IGF1R; settings: at 100 nM
# Insulin-like growth factor 1 receptor, sequence (P08069 31-736 limits assumed): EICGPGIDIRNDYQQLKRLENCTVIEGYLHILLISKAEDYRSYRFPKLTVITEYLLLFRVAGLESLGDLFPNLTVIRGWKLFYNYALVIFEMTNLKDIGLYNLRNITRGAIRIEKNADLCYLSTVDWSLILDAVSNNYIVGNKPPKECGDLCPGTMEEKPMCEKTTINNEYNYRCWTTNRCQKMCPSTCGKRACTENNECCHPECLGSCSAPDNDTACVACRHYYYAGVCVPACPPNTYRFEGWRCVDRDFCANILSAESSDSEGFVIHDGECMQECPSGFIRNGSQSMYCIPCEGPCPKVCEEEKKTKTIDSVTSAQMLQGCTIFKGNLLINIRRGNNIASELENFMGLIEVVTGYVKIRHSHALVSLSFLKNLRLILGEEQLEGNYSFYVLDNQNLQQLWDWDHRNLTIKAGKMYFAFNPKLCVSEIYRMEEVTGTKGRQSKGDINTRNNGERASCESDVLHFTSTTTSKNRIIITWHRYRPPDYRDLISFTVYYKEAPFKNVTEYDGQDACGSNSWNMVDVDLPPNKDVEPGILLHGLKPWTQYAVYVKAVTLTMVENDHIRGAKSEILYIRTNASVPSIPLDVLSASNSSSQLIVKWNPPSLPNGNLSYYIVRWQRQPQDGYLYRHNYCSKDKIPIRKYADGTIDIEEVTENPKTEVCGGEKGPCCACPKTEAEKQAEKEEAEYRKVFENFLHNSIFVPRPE
# Insulin-like growth factor 1 receptor, sequence (P08069 741-1367 limits assumed): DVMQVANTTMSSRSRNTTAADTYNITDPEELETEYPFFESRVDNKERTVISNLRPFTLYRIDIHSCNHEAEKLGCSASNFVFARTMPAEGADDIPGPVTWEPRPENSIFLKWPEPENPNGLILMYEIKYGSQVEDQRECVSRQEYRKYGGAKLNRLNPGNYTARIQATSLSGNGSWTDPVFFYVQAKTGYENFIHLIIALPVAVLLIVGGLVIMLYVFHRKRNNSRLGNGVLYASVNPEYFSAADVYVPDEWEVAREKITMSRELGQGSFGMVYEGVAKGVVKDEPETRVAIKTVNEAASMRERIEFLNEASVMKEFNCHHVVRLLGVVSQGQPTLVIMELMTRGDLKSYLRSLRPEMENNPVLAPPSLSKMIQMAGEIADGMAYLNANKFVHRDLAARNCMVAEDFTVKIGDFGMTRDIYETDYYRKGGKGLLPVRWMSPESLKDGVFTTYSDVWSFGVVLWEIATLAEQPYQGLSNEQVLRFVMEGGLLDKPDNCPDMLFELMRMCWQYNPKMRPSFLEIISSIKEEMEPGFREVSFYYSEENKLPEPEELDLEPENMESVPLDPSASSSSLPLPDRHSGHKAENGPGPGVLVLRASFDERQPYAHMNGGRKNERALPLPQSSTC
# [7] = tested on: Epidermal growth factor receptor (Homo sapiens), P00533 [UNDEFINED MUTATION]; test: Selectivity interaction (KinomeScan (DiscoverX)) EUB0001049a EGFR; settings: at 1 µM
# [8] = molecular target: Eukaryotic translation initiation factor 2-alpha kinase 1 (Homo sapiens) (UniProt Q9BQI3); test: Selectivity interaction (KinomeScan (DiscoverX)) EUB0001049a EIF2AK1; settings: at 1 µM
# Eukaryotic translation initiation factor 2-alpha kinase 1 (Homo sapiens), sequence (Q9BQI3 whole entry): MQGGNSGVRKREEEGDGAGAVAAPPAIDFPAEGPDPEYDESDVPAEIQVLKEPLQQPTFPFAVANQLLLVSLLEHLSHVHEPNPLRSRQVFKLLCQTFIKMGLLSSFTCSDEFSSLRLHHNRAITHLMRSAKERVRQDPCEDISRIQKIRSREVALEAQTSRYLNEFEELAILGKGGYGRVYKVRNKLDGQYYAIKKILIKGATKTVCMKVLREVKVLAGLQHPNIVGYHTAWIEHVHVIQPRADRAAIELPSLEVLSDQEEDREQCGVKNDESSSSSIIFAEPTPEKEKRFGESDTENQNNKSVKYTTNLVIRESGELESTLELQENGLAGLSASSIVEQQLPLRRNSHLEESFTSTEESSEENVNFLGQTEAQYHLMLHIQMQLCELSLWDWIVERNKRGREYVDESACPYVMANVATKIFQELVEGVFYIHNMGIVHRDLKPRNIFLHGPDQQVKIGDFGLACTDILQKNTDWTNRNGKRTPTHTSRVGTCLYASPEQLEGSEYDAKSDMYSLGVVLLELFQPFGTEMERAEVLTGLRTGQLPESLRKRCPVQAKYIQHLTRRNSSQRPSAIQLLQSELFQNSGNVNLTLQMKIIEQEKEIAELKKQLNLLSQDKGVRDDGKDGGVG
# [9] = molecular target: T1, Ephrin type-B receptor 1 (Homo sapiens) (UniProt P54762); test: Selectivity interaction (KinomeScan (DiscoverX)) EUB0001049a EPHB1; settings: at 1 µM
# T1 sequence (whole entry): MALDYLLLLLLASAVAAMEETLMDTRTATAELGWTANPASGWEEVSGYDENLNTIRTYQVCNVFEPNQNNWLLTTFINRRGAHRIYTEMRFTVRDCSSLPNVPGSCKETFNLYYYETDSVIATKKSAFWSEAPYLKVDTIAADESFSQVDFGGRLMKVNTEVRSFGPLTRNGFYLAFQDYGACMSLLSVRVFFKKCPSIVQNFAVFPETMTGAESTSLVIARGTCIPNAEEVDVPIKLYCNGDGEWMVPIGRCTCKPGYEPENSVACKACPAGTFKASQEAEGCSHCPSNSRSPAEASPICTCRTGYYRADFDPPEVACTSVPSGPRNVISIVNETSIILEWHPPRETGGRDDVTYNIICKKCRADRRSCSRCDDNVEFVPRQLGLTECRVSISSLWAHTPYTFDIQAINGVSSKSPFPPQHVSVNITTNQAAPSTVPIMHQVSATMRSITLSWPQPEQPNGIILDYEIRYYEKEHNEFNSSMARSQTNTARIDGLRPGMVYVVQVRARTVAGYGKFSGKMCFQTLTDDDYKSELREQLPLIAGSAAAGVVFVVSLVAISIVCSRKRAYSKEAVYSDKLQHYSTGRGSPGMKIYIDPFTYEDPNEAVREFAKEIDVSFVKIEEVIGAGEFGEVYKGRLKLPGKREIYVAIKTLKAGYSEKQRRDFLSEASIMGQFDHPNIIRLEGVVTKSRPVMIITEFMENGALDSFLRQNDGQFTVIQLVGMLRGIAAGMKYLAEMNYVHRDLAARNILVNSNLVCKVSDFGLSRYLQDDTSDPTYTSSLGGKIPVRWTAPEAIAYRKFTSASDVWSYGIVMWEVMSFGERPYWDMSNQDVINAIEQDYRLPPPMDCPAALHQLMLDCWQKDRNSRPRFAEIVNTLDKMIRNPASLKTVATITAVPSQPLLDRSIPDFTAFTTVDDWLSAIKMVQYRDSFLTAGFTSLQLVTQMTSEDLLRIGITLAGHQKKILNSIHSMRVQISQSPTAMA
# [10] = molecular target: T2, Serine/threonine-protein kinase ULK1 (Homo sapiens) (UniProt O75385); test: Selectivity interaction (KinomeScan (DiscoverX)) EUB0000655a ULK1; settings: at 10 µM
# T2 sequence (whole entry): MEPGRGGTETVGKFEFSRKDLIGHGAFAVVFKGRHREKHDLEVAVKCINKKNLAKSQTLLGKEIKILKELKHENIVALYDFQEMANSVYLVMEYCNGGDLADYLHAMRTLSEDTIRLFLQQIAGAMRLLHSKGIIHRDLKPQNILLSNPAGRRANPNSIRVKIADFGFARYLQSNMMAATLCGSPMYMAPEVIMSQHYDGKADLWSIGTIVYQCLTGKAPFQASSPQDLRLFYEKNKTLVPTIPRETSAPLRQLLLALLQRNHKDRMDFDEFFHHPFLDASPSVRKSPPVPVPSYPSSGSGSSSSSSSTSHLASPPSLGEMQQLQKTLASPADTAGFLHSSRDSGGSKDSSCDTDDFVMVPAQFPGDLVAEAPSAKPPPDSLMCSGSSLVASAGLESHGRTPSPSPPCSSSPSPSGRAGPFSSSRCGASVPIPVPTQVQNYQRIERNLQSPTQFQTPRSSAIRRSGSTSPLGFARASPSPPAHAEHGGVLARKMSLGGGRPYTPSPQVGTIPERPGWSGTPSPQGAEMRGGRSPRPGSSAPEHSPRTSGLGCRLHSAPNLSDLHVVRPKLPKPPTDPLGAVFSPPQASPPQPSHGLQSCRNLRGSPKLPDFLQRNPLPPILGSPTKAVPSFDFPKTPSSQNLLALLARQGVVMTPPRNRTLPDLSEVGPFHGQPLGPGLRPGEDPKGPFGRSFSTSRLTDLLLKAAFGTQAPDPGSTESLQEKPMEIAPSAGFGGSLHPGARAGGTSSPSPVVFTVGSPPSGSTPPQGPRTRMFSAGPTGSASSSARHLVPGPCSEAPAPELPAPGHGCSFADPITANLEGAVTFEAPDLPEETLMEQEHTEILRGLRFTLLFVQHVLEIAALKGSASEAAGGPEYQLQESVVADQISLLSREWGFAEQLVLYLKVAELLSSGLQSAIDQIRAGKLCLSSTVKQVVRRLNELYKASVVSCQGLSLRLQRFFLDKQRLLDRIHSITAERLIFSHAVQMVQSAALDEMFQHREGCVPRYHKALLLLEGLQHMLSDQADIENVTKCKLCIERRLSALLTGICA
# [11] = molecular target: Serine/threonine-protein kinase PAK 1 (Homo sapiens) (UniProt Q13153); test: Selectivity interaction (KinomeScan (DiscoverX)) EUB0001079a PAK1; settings: at 1 µM
# [12] = molecular target: Bone morphogenetic protein receptor type-1B (Homo sapiens, UniProt O00238); test: Selectivity interaction (KinomeScan (DiscoverX)) EUB0000229b BMPR1B; settings: at 10 µM
# Bone morphogenetic protein receptor type-1B, sequence (O00238 whole entry): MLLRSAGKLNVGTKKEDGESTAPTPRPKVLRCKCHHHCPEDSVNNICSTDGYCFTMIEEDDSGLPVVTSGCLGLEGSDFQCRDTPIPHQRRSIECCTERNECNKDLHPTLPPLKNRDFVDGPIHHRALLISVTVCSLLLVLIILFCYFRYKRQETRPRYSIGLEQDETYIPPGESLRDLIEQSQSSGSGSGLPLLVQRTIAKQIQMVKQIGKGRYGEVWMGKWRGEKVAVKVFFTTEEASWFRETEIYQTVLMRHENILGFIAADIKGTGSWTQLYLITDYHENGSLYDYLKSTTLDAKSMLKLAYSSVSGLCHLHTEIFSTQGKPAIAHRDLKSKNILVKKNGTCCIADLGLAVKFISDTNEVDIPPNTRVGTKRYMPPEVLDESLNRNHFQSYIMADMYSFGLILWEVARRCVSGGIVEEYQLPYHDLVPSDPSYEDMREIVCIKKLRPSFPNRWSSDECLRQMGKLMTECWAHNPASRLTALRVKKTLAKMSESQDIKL
# [13] = molecular target: Ribosomal protein S6 kinase alpha-2 (Homo sapiens) (UniProt Q15349); test: Selectivity interaction (KinomeScan (DiscoverX)) EUB0001619a RPS6KA2; settings: at 1 µM
smiles,measurement,setting,value
Cn1cc(-n2cnc3c(NCc4nc5cc(Cl)c(Cl)cc5[nH]4)nc(N4CCOCC4)nc32)cn1,% of inhibition,[1],-29.3%
CC[C@@H]1[C@H](F)C(=O)N[C@@H]1COc1nccc2cc(C(N)=O)c(OC)cc12 [ZIMLOVISERTIB],% of inhibition,[2],-14.1%
same,% of inhibition,[3]; at 0.01 µM,-12.7%
same,% of inhibition,[3]; at 0.04 µM,-16.1%
same,% of inhibition,[3]; at 0.2 µM,-5.4%
same,% of inhibition,[3]; at 1 µM,-3.3%
same,% of inhibition,[3]; at 5 µM,-18.6%
CN1CCN(C(=O)c2ccc3cc2OCCOCCNc2ccn4ncc-3c4n2)CC1,dTM,[4],2.9 K
Cc1cc(C)cc([C@@H]2c3cc(C)ccc3NC(=O)CN2C(=O)c2ccc(Br)s2)c1,% of inhibition,[5],20%
Cc1cc(F)c(C(=O)Nc2cccc(-c3nncn3C(C)C)n2)cc1-n1cnc(C2CC2)c1,% of control,[6],100%
COc1cc(Nc2nc(C)cc(-c3cnn4nc(OC)ccc34)n2)cc(C(F)(F)F)c1,% of control,[7],53%
same,% of control,[8],89%
same,% of control,[9],85%
CN(C)CCOc1ccc(-c2nc(-c3ccncc3)c(-c3ccc4c(c3)CC/C4=N\O)[nH]2)cc1,% of control,[10],98%
Nc1cnc(N2CCc3cc(S(=O)(=O)Nc4c(F)cc(Cl)cc4F)cc(N4CCCC4=O)c32)nc1 [TP-020n],% of control,[11],89%
COc1cc(N(C)c2ccnc3ccc(C(F)(F)F)cc23)cc(OC)c1OC,% binding,[12],73%
N#Cc1cccc(-c2c[nH]c3ncnc(N4CCOCC4)c23)c1,% of control,[13],82%
